Experimental data taken from ChEMBL document CHEMBL4359866, “A computer-assisted discovery of novel potential anti-obesity compounds as selective carbonic anhydrase VA inhibitors” (Eur J Med Chem, 2019).

How the values were obtained:
Carbonic anhydrase 2 = Carbonic anhydrase 2 (Homo sapiens, UniProt P00918); assay: Inhibition of recombinant human carbonic anhydrase 2 preincubated with enzyme for 15 mins by phenol red dye based stopped flow CO2 hydration assay
Carbonic anhydrase 1 = Carbonic anhydrase 1 (Homo sapiens, UniProt P00915); assay: Inhibition of recombinant human carbonic anhydrase 1 preincubated with enzyme for 15 mins by phenol red dye based stopped flow CO2 hydration assay
Sequence of Carbonic anhydrase 1 (P00915 whole entry): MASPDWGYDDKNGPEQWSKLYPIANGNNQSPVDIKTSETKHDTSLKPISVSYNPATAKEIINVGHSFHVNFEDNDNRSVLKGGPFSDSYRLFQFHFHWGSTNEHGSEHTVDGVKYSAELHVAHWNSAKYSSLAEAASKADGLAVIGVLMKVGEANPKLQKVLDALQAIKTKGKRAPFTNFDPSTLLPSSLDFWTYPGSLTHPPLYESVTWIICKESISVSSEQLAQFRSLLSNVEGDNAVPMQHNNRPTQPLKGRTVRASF

[1] = target: Carbonic anhydrase 5A, mitochondrial (Homo sapiens, UniProt P35218); assay: Inhibition of recombinant human carbonic anhydrase VA preincubated with enzyme for 15 mins by phenol red dye based stopped flow CO2 hydration assay
Sequence of Carbonic anhydrase 5A, mitochondrial (P35218 whole entry): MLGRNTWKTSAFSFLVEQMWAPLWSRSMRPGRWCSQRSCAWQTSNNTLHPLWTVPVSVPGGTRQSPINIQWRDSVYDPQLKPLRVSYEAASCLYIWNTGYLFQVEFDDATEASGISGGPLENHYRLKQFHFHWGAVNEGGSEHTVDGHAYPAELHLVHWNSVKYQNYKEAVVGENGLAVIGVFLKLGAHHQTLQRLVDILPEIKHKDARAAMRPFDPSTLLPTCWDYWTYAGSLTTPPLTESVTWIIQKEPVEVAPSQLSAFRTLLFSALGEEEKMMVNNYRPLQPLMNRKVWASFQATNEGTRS

O=C(CSc1ccncc1)N[C@@H]1C(=O)N2C(C(=O)O)=C(CO)CS[C@H]12
Ki (Carbonic anhydrase 2): > 10 µM
Ki (Carbonic anhydrase 1): > 10 µM

O=C(Cc1nnc(O)nc1O)N/N=C/c1c(O)ccc2ccccc12
Ki [1]: 8.71 µM
Ki (Carbonic anhydrase 2): > 10 µM
Ki (Carbonic anhydrase 1): > 10 µM

Nc1nc(=O)c2nc(CNc3ccc(C(=O)N[C@H](CCC(=O)O)C(=O)O)cc3)cnc2[nH]1
Ki [1]: 9.75 µM
Ki (Carbonic anhydrase 2): > 10 µM
Ki (Carbonic anhydrase 1): > 10 µM

Nc1nc(F)nc2c1ncn2[C@@H]1O[C@H](COP(=O)(O)O)[C@@H](O)[C@@H]1O [FLUDARABINE PHOSPHATE]
Ki [1]: 0.131 µM
Ki (Carbonic anhydrase 2): > 10 µM
Ki (Carbonic anhydrase 1): > 10 µM

NC(=O)c1cn(Cc2c(F)cccc2F)nn1 [RUFINAMIDE]
Ki [1]: 0.344 µM
Ki (Carbonic anhydrase 2): > 10 µM
Ki (Carbonic anhydrase 1): > 10 µM

O=C(COc1ccc2c3c(c(=O)oc2c1)CCC3)c1ccc(Cl)cc1
Ki [1]: > 10 µM
Ki (Carbonic anhydrase 2): > 10 µM
Ki (Carbonic anhydrase 1): > 10 µM

Nc1ccc2c(n1)[nH]c1ccccc12
Ki (Carbonic anhydrase 2): > 10 µM
Ki (Carbonic anhydrase 1): > 10 µM

O=c1[nH]nc(SCc2ccc(Cl)cc2Cl)c(=O)[nH]1
Ki (Carbonic anhydrase 2): > 10 µM
Ki (Carbonic anhydrase 1): > 10 µM

COc1cc2nccc(Oc3ccc(NC(=O)NC4CC4)c(Cl)c3)c2cc1C(N)=O [LENVATINIB]
Ki [1]: 0.133 µM
Ki (Carbonic anhydrase 2): > 10 µM
Ki (Carbonic anhydrase 1): > 10 µM

COc1cc(CC(=O)O)ccc1OS(=O)(=O)O
Ki (Carbonic anhydrase 2): > 10 µM
Ki (Carbonic anhydrase 1): > 10 µM

O=C(CCNc1n[nH]c(=O)[nH]c1=O)N/N=C\c1c(F)cccc1Cl
Ki (Carbonic anhydrase 2): > 10 µM
Ki (Carbonic anhydrase 1): > 10 µM

CC(=O)c1cc(O)cc(O)c1
Ki (Carbonic anhydrase 2): > 10 µM
Ki (Carbonic anhydrase 1): > 10 µM
